Experimental data from article PMC9885860 (Pharmacological research, 2021).
Values joined by “and” are separate entries in the source; they are usually repeats but may differ in a detail not shown here. Equal values may be shown once. “Also recorded” adds a separate entry of the source. Where a name gives a salt, the structure may show the parent alone. Read-outs that look alike come from different tables or passages of the source.

How the values were obtained:
[1] = target: T1, α2AR-α2AR (Homo sapiens, UniProt P08913); experiment: CODA-RET Gαi1 activation, α2AR-α2AR homomer; assay type: cell-based; details: for Emax: Gαi1, Table 2
T1 sequence (P08913 1-465) 1: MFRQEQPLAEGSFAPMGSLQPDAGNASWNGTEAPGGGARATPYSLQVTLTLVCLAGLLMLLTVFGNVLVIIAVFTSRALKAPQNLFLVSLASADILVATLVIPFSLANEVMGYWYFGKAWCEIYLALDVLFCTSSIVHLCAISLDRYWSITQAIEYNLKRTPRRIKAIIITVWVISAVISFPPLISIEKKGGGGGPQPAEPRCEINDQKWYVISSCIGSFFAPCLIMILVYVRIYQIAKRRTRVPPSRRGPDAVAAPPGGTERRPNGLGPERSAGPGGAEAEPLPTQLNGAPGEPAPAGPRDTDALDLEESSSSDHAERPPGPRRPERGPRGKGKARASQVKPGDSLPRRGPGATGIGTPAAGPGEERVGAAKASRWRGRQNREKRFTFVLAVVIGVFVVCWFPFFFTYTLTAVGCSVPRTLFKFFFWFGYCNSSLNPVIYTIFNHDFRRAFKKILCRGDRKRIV
T1 sequence (P08913 1-465) 2: T1 sequence (P08913 1-465) 1

[2] = target: T2, α2AR-D4.4R (Homo sapiens, UniProt P08913+P21917); experiment: CODA-RET Gαi1 activation, α2AR-D4.4R heteromer; assay type: cell-based; details: for Emax: Gαi1, Table 2
T2 sequence (P08913 1-465): T1 sequence (P08913 1-465) 1
T2 sequence (P21917 1-419): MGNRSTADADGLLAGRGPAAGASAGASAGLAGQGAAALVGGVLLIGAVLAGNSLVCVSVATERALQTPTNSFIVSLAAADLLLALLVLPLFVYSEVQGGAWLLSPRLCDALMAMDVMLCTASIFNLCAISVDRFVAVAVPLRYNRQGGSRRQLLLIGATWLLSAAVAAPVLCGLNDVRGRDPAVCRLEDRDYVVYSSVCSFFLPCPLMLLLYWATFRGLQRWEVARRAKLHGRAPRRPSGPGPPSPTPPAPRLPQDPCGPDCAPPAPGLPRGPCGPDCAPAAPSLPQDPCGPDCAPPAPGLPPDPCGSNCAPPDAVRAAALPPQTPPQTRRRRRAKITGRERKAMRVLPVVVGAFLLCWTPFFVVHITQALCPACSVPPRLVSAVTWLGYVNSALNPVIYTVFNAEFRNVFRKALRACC

[3] = target: α2AR-D4.7R (Homo sapiens, UniProt P08913+P21917); experiment: CODA-RET Gαi1 activation, α2AR-D4.7R heteromer; assay type: cell-based; details: for Emax: Gαi1, Table 2
Sequence of α2AR-D4.7R (Homo sapiens, UniProt P08913+P21917) (P62873 2-340, one chain of several): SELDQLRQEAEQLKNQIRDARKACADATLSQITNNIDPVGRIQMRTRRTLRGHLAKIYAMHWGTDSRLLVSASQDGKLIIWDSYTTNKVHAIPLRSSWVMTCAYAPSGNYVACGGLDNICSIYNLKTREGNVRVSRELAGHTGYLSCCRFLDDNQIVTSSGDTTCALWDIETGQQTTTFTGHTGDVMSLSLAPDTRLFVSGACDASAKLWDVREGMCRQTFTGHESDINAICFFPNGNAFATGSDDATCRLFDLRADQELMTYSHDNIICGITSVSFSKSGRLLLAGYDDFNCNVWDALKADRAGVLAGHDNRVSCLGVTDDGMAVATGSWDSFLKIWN
Sequence of α2AR-D4.7R (Homo sapiens, UniProt P08913+P21917) (P63096 2-354, one chain of several, further chain): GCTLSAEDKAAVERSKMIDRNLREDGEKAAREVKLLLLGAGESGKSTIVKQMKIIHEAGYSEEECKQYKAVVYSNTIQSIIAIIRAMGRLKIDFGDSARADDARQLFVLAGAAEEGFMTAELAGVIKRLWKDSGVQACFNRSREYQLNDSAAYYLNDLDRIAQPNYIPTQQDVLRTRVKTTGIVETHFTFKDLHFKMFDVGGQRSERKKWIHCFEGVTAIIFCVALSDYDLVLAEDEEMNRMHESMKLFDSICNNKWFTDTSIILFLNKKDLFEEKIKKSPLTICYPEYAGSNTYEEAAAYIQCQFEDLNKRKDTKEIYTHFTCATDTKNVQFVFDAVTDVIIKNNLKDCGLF
Sequence of α2AR-D4.7R (Homo sapiens, UniProt P08913+P21917) (P59768 2-68, one chain of several, further chain): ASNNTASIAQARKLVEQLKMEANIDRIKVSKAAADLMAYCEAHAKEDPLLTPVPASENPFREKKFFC

[4] = target: T3, human α2AR (Homo sapiens, UniProt P08913); experiment: [3H]RX821002 saturation binding in HEK-293T cells transfected with human α2AR; details: read-out: KDA1, n=3
T3 sequence (P08913 1-465): T1 sequence (P08913 1-465) 1

[5] = target: T2, α2AR-D4.4R; assay type: binding; details: 12°C; control or in presence of A-412997 (30 nM)
[6] = test system: α2AR-D4.7R; assay type: binding, human; details: 12°C; control or in presence of A-412997 (30 nM)
[7] = target: human α2A adrenoceptor fused to Renilla luciferase RLuc8 (α2AR-RLuc) (human) (UniProt P08913); experiment: FRET or BRET
[8] = target: T4, α2R (Ovis aries, UniProt A0ACI6PY47); experiment: Competitive inhibition of [3H]RX821002 binding in sheep cortex membranes; details: read-out: KDB1 for α2R; vs [3H]RX821002, sheep cortex membranes
T4 sequence (A0ACI6PY47 1-467): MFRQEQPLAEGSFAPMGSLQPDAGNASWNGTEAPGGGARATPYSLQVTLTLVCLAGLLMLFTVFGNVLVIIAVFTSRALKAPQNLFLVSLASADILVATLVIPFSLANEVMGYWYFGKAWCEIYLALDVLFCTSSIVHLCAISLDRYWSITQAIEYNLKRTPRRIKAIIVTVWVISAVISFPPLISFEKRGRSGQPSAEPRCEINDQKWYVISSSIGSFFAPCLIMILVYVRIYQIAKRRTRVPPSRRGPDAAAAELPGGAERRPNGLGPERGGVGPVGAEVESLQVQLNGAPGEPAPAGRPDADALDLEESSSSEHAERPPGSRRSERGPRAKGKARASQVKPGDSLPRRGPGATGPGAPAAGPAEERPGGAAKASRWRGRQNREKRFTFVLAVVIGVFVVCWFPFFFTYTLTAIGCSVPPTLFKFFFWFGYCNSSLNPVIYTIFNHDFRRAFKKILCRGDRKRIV

[9] = target: T5, D4.4R (Homo sapiens, UniProt P21917); assay type: binding
T5 sequence (P21917 1-419): T2 sequence (P21917 1-419)

[10] = target: T6, D4.4R-D4.4R (Homo sapiens, UniProt P21917); experiment: CODA-RET Gαi1 activation, D4.4R-D4.4R homomer; assay type: cell-based; details: A-412997 1 μM; shift to the right of DA curve
T6 sequence (P21917 1-419) 1: T2 sequence (P21917 1-419)
T6 sequence (P21917 1-419) 2: T2 sequence (P21917 1-419)

[11] = target: T5, D4.4R; experiment: Receptor-G protein BRET, D4.4R fused to RLuc with Gαi1 or Gαo1; assay type: cell-based
[12] = target: T7, D4.7R (Homo sapiens, UniProt P21917); experiment: Receptor-G protein BRET, D4.7R fused to RLuc with Gαi1 or Gαo1; assay type: cell-based
T7 sequence (P21917 1-264 limits assumed): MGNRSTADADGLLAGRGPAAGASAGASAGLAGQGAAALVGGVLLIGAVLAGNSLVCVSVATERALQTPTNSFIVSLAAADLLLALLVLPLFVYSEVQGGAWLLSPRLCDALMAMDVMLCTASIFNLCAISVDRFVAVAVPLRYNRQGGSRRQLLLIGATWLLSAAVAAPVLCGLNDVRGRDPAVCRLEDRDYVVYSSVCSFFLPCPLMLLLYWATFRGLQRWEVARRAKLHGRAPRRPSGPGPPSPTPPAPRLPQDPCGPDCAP
T7 sequence (P21917 297-419 limits assumed): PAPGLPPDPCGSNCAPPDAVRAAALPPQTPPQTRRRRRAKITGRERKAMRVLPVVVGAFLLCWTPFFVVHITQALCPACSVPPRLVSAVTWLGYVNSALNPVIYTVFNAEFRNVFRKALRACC

[13] = target: T2, α2AR-D4.4R; experiment: CODA-RET Gαo1 activation, α2AR-D4.4R heteromer; assay type: cell-based; details: Fig. 4D
[14] = target: T8, α2AR-D4.4R cells (Homo sapiens, UniProt P08913+P21917); experiment: Forskolin-induced cAMP accumulation, α2AR-D4.4R cells; assay type: cell-based; details: agonists 100 nM, forskolin 0.5 μM
T8 sequence (P08913 1-465): T1 sequence (P08913 1-465) 1
T8 sequence (P21917 1-419): T2 sequence (P21917 1-419)

[15] = target: T8, α2AR-D4.4R cells; experiment: ERK1/2 phosphorylation, α2AR-D4.4R cells; assay type: cell-based; details: agonists 300 nM, 5 min
[16] = test system: cortical slices from hD4.7R mice; experiment: ERK1/2 phosphorylation in cortical brain slices from knock-in hD4.7R mice; design: species or system mouse; details: agonists 1 μM
[17] = target: T9, D4.7R-D4.7R (Homo sapiens, UniProt P21917); details: A-412997 1 μM; shift to the right of DA curve
T9 sequence (P21917 1-419): T2 sequence (P21917 1-419)

[18] = test system: α2AR-D4.7R; experiment: CODA-RET Gαo1 activation, α2AR-D4.7R heteromer; assay type: cell-based, human; details: Fig. 4E
[19] = target: T10, α2AR (with D4.4R) (Homo sapiens, UniProt P08913); experiment: BRET α2AR-RLuc and Gαo1-mVenus, cells co-transfected with unfused D4.4R; assay type: cell-based; details: in the presence of D4.4R
T10 sequence (P08913 1-465): T1 sequence (P08913 1-465) 1

[20] = target: T11, α2AR (with D4.7R) (Homo sapiens, UniProt P08913); experiment: BRET α2AR-RLuc and Gαo1-mVenus, cells co-transfected with unfused D4.7R; assay type: cell-based; details: in the presence of D4.7R
T11 sequence (P08913 1-465): T1 sequence (P08913 1-465) 1

[21] = cells pretreated with antagonist

## CC1c2ccccc2CN1CC1=NCCN1.O=C(O)/C=C\C(=O)O (stereo not shown) [BRL44408, BRL 44408 maleate]
[1]; [21]
  antagonist effect on NE- and DA-induced Gαi1 activation: significantly decreased the potency of NE and DA
[2]; [21]
  antagonist effect on NE- and DA-induced Gαi1 activation: significantly decreased the potency of NE and DA
[3]; [21]
  antagonist effect on NE- and DA-induced Gαi1 activation: significantly decreased the potency of NE and DA

## COC1(C2=NCCN2)COc2ccccc2O1 (stereo not shown) [[^3H]RX821002]
[4]
  Kd: 0.62 ± 0.05 nM
[5]
  RT1 (residence time) of [3H]RX821002: 7 min
  RT2 (residence time) of [3H]RX821002: 50 min
  koff1 of [3H]RX821002: 0.14 ± 0.03 min⁻¹
  koff2 of [3H]RX821002: 0.020 ± 0.004 min⁻¹
[6]
  RT (residence time) of [3H]RX821002: 17 min
  koff of [3H]RX821002: 0.058 ± 0.002 min⁻¹

## CCCN[C@H]1CCc2nc(N)sc2C1 [Pramipexole, Pramipexole dihydrochloride]
[2]
  Emax: 28±3 % of NE
[3]
  Emax: 48±5 % of NE

## CCCN(CCC)CCc1cccc2c1CC(=O)N2 [Ropinirole]
[1]
  Emax: ineffective
[2]
  EC50: 400 ± 200 nM

## human dopamine D4.7 receptor fused to YFP (D4.7R-YFP)
[7]
  BRET50: 60

## CCCN(CCc1cccs1)[C@H]1CCc2c(O)cccc2C1 [Rotigotine, Rotigotine hydrochloride]
[1]
  Emax: 0 % of NE
[1]; listed as rotigotine
  Emax: ineffective; also recorded: did not produce any response
[2]
  EC50: 7 ± 5 nM
  Emax: 13±2 % of NE
[2]; listed as rotigotine
  Emax: small Gαi1 protein activation
[3]
  Emax: did not produce any response and 0 % of NE

## Cc1cccc(NC(=O)CN2CCC(c3ccccn3)CC2)c1.Cl.Cl [A-412997, A-412997 dihydrochloride]
[8]
  Kd: 1400 nM
[9]; read-out: KDB1, vs [3H]YM-09151-2, HEK-293T co-expressing α2AR and D4.4R, n=3
  Kd: 1.1 ± 0.1 nM
[5]
  koff1 of [3H]RX821002: 0.25±0.07 ^* min^−1
  koff2 of [3H]RX821002: 0.036±0.007 ^* min^−1
[3]
  Emax: 0 % of NE
[10]
  effect on DA-mediated Gi protein activation: competitive antagonist of DA
[11]; Gαi1-mVenus
  Gαi1 activation: did not promote
[11]; Gαo1-mVenus
  Gαo1 activation: did promote significant Gαo1 activation
[12]; Gαi1-mVenus
  Gαi1 activation: did not promote
[12]; Gαo1-mVenus
  Gαo1 activation: did promote significant Gαo1 activation
[13]
  Gαo1 activation: promoted Gαo1 activation
[14]
  inhibition of forskolin-induced cAMP accumulation: more effective than dexmedetomidine
[15]
  ERK1/2 phosphorylation: more effective in α2AR-D4.4R cells than in α2AR-D4.7R cells
[16]
  MAPK activation (ERK1/2 phosphorylation): significantly weaker than of dexmedetomidine
[17]
  effect on DA-mediated Gi protein activation: competitive antagonist of DA

## COC1(C2=NCCN2)COc2ccccc2O1.Cl (stereo not shown) [RX821002, RX 821002 hydrochloride]
[9]; any concentration up to 10 μM
  displacement of [3H]YM-09151-2: did not displace

## N=C(N)NC(=O)Cc1c(Cl)cccc1Cl [Guanfacine, Guanfacine hydrochloride]
[1]
  Emax: 14±2 % of NE
[2]
  Emax: 0 % of NE
[2]; listed as guanfacine
  Emax: complete lack of efficacy
[3]
  Emax: 20±3 % of NE

## NC[C@H](O)c1ccc(O)c(O)c1 [NE, norepinephrine]
[1]
  Emax: 100±3 % of NE
[3]; Gαi1 CODA-RET
  increase in NE potency on α2AR-D4.7R compared with α2AR-D4.4R: five-fold

## Clc1cccc(Cl)c1N=C1NCCN1 [Clonidine, Clonidine hydrochloride]
[1]
  Emax: 18±2 % of NE
[2]
  Emax: 0 % of NE
[2]; listed as clonidine
  Emax: complete lack of efficacy

## Cc1cccc([C@H](C)c2cnc[nH]2)c1C [Dexmedetomidine, Dexmedetomidine hydrochloride]
[9]
  Kd: 2000 to 6000 nM
[1]
  Emax: 26±3 % of NE
[18]
  Gαo1 activation: able to activate Gαo1
[19]
  α2AR-mediated Gαo1 activation: promotes a significant α2AR-mediated Gαo1 activation
[20]
  α2AR-mediated Gαo1 activation: promotes a significant α2AR-mediated Gαo1 activation

## Cc1cccc(C(=O)NCN2CCN(c3ccccc3C#N)CC2)c1 [PD168077]
[8]
  Kd: 80 ± 10 nM
